Data reported in PMC11432454, “An Ingenane-Type Diterpene from Euphorbia kansui Promoted Cell Apoptosis and Macrophage Polarization via the Regulation of PKC Signaling Pathways” (International Journal of Molecular Sciences, 2024).
Like-named read-outs stand apart in the source and are kept apart here.

Tests used:
HepG2 cells [1] = assay: MTT assay, cell viability of HepG2 cells; assay type: cell-based; details: Homo sapiens
Method: (§1) 8 × 10^4 cells/well were incubated in 96T wells for 24 h, and the cells were treated with a drug-containing medium for a specified time. Cells were added 20 μL 0.5% MTT (Sigma, USA) to each well, continued to incubate at 37 °C for 3.5 h, then the medium was discarded and 150 μL of DMSO was added to each well to dissolve the purple formazan. The cells were shaken for 15 min at room temperature and read at 490 nm. Cell viability (%) = ([…])/(ODcontrol − ODblank) × 100%. IC50 (half maximal inhibitory concentration) was calculated by SPSS 27.0 software.

[2] = MTT assay, cell viability of RAW264.7 cells; assay type: cell-based; details: mouse, RAW264.7 macrophage cells; half inhibitory of RAW264.7 cells, cell survival, n = 3
Method: (§2) Mouse macrophage cell line RAW264.7 was incubated in a DMEM medium (Gibco, Carlsabad, CA, USA) supplemented with 10% fetal bovine serum (FBS, Gibco), 10,000 U/mL penicillin, and 10,000 μg/mL streptomycin. RAW264.7 cells were treated with 1 μg/mL Lipopolysaccharide (LPS, Sigma, Saint Louis, MO, USA, 12181202) to promote the polarization of macrophages towards M1 or 20 ng/mL interleukin 4 (IL-4, Beyotime, Shanghai, China) to promote the polarization of macrophages towards M2.
as §1

[3] = test system: NO production in LPS-stimulated RAW264.7 cells; assay: cells; assay type: cell-based; details: Mus musculus
Method: as §2
(§3) The isolates were evaluated for their inhibitory effect on NO production in LPS-induced RAW264.7 cells. The iNOS inhibitor (NG-monnomycin-L-arginine, L-NMMA) was selected as the positive control. NO was evaluated by absorbance-based detection on nitrite accumulated in the culture medium. The levels of cytokines (IL-1β, IFN-γ, IL-10, TNF-α, and IL-6) in the cell supernatant were determined using an ELISA kit (Novus Biologicals, Centennial, CO, USA) according to the manufacturer’s instructions. The absorbance was read at OD450nm/OD540nm in SpectraMax340PC microplate spectrophotometer (Molecular Devices, San Jose, CA, USA).

A549 cells = assay: MTT assay, cell viability of A549 cells; assay type: cell-based; details: Homo sapiens, A549, read-out: A549 IC50
Method: as §1

MCF-7 cells = assay: MTT assay, cell viability of MCF-7 cells; assay type: cell-based; details: Homo sapiens, MCF7, read-out: MCF-7 IC50
Method: as §1

HepG2 cells [4] = assay: Annexin V/PI flow cytometry, apoptosis of HepG2 cells; assay type: cell-based, human; details: 12.5 μmol·L^−1 or 25 μmol·L^−1
Method: (§4) Cells with the relevant surface antibodies were incubated at 4 °C for 30 min without light. The stained cells were incubated with Annexin V/PI kits from BD. The experiment was conducted according to the instructions. Data were analyzed on FlowJo V10 software.

[5] = test system: Bax, cleaved caspase 3, cleaved caspase 8 in HepG2 cells; assay: Western blotting of apoptosis-related proteins in HepG2 cells; assay type: cell-based, human; details: 12.5 or 25 μmol·L^−1
Method: (§5) Protein samples were prepared using a RIPA lysis buffer. The concentration of the protein was analyzed using nucleic acid and protein microanalyzer (Molecular Devices, San Jose, CA, USA). SDS-PAGE gel electrophoresis was performed to separate the proteins, which then were electro-transferred onto a PVDF membrane. The membranes were blocked with 5% non-fat milk for 2 h and incubated with primary antibodies and secondary antibodies. The protein bands were detected by the ECL and were exposed to the TANON gel imager (Shanghai, China). The results were analyzed by Image J 180 software.

[6] = test system: PKC δ and ERK in HepG2 cells; assay: Western blotting of PKC δ and ERK expression and phosphorylation in HepG2 cells; assay type: cell-based, human
Method: as §5

[7] = test system: PKC δ, ERK, and NF-κB in LPS-stimulated RAW264.7 cells; assay: Western blotting of PKC δ, ERK, NF-κB in LPS-stimulated RAW264.7 cells; assay type: cell-based, mouse; details: for level of PKC δ protein / phosphorylation of PKC δ, ERK, and NF-κB: LPS-stimulated RAW264.7, 24 h; for phosphorylation of PKC δ, ERK, and NF-κB: compared to the LPS group, BIS 150 nmol·L^−1
Method: as §2, §5
In order to investigate the effects of PKC activation on the effects of drug treatment, 150 nmoL/L bisindolylmaleimide (BIS) was used. BIS (Beyotime, Shanghai, China) is a potent inhibitor of PKC α/β/γ and PKC δ/ε. This agent was stored at −80 °C in DMSO and cells were pre-incubated with the inhibitor for 4 h prior to being treated with compound A.

[8] = test system: iNOS, COX2, NO, IL-1β, IL-6 in LPS-stimulated RAW264.7 cells; assay: Inflammatory mediators in LPS-stimulated RAW264.7 cells (Western blot, ELISA, immunofluorescence); assay type: cell-based, mouse; details: LPS (1 μg·mL^−1)-stimulated RAW264.7, 10 and 5 μmol·L^−1, 24 h
Method: as §2, with “M2. […]” for “M2.”
as §3, with “The iNOS inhibitor (NG-monnomycin-L-arginine, L-NMMA) was selected as the positive control.” left out
Protein samples were prepared using a RIPA lysis buffer. The concentration of the protein was analyzed using nucleic acid and protein microanalyzer (Molecular Devices, San Jose, CA, USA). […] The protein bands were detected by the ECL and were exposed to the TANON gel imager (Shanghai, China). The results were analyzed by Image J 180 software.

[9] = test system: PKC δ, ERK, STAT3, STAT6, ARG-1, CD163, TGF-β, CD206 in IL-4-stimulated RAW264.7 cells; assay: M2 polarization markers in IL-4-stimulated RAW264.7 cells (Western blot, immunofluorescence); assay type: cell-based, mouse
Method: as §2
RAW264.7 cells were fixed with 500 μL/well 4% paraformaldehyde for 20 min at room temperature, washed with 1 mL/well PBS five times, then incubated with anti-iNOS, anti-COX-2, or anti-CD206 antibodies at 4 °C overnight, separately. The cells were washed with 1 mL/well PBS five times, then treated with the secondary antibody (FITC-Goat anti-rabbit IgG antibody, 1:200-fold dilution) and DPAI (100 μL/well). […] The stained images were captured under a laser scanning confocal microscope (Nikon A1 AIR MP+, Tokyo, Japan).
as §5

[10] = test system: HepG2 and RAW264.7 cell co-cultivations; assay: Annexin V/PI flow cytometry, HepG2 and RAW264.7 co-cultivation; assay type: cell-based; details: 48 h, compared with the HepG2 cell group
Method: as §4

[11] = test system: Bax, cleaved caspase 3 and 8, IL-6, ARG-1, CD206, COX2 in HepG2 and RAW264.7 cell co-cultivations; assay: Western blotting and ELISA in HepG2 and RAW264.7 co-cultivation; assay type: cell-based
Method: as §3, §5

[12] = IL-4 (20 ng/mL)-stimulated RAW264.7, 10 μmol·L^−1, 0–60 min
[13] = compared with HepG2 cell group and co-cultivation group

## COc1cccc2c1C(=O)c1c(O)c3c(c(O)c1C2=O)C[C@@](O)(C(=O)CO)C[C@@H]3O[C@H]1C[C@H](N)[C@H](O)[C@H](C)O1 [Adr, adriamycin, reference compound]
HepG2 cells [1]; HepG2, cell viability, MTT, n = 3, read-out: HepG2 IC50
  IC50: 4.37 ± 1.21 µM

## [H]/N=C(/NC)NCCC[C@H](N)C(=O)O [l-NMMA, NG-monnomycin-l-arginine, reference compound]
[2]
  CC50: > 50 µM
[3]; RAW264.7, read-out: RAW264.7 IC50 (inhibition of nitric oxide production)
  IC50: 21.8 ± 3.21 µM

## CCCCCCCCCCCC(=O)OC12CC(C)C34C=C(C)C(OC(=O)C(C)C(C)C)C3(O)C(O)C(CO)=CC(C4=O)C1C2(C)C (centres unmarked) [Compound A, 13-hydroxyingenol-3-(2,3-dimethylbutanoate)-13-dodecanoate]
A549 cells
  IC50: 22 ± 5.01 µM
MCF-7 cells
  IC50: 27.1 ± 3.34 µM
HepG2 cells [1]; HepG2, read-out: HepG2 IC50
  IC50: 21 ± 4.53 µM
[2]
  CC50: 20.3 ± 3.62 µM
[3]; LPS-stimulated RAW264.7 cells, n = 3, read-out: RAW264.7 IC50 (inhibition of nitric oxide production)
  IC50: 0.57 ± 0.07 µM
HepG2 cells [4]
  apoptosis in HepG2 cells: significantly induced apoptosis
[5]
  expression of Bax, cleaved caspase 3, and cleaved caspase 8: increased
[6]; treated 0, 10, 20, 40, 60 min
  time of highest level of phosphorylation of PKC δ: 10 to 20 min
[6]; versus control group
  expression of PKC δ: decreased
  phosphorylation of PKC δ (p-PKC δ) and ERK (p-ERK): downregulated
[7]; LPS (1 μg·mL^−1)-stimulated RAW264.7, compound A 10 μmol·L^−1, 0-60 min
  time of highest point of phosphorylation of PKC δ, ERK, and NF-κB: 20 to 30 min
[7]
  level of PKC δ protein: decreased
  phosphorylation of PKC δ, ERK, and NF-κB: significantly reduced
[8]
  COX2 expression: increased
  expression of iNOS and production of cytokines (NO, IL-1β, IL-6): decrease
[9]; [12]
  PKC δ and ERK activation: promote
  STAT6 phosphorylation: inhibited
[9]; IL-4-stimulated RAW264.7, co-treatment 24 h
  activation of STAT3 and STAT6: inhibited
[9]; IL-4-stimulated RAW264.7 cells
  expression of ARG-1, CD163, TGF-β, and CD206: downregulated
[10]
  apoptosis rates: upregulated
[11]; 10 μmol·L^−1, 48 h
  level of Bax, and cleaved caspase 3 and 8: significantly increase
[11]; [13]
  COX2 expression: increased
  expression of ARG-1 and CD206: decreased
  level of IL-6: decreased

## bisindolylmaleimide [reference compound]
[7]
  level of PKC δ protein: did not
  phosphorylation of PKC δ, ERK, and NF-κB: significantly reduced
